Results published in US9963506B2, “Human-mouse chimeric anti-CD147 antibody with non-fucosylated glycosylation” (Fourth Military Medical University, priority 2015, dated 2018).

System: NCI-H520 cells
Experiment: Subcutaneous xenograft model, tumor growth inhibition
Type: in vivo, SCID mice
Details: tail vein
Method: Mice injected with NCI-H520 cells subcutaneously in the right dorsal flank were treated by intravenous saline; 2 mg/kg Cisplatin and 100 mg/kg Gemcitabine; Metuzumab infusion at 2 mg/kg, 10 mg/kg and 30 mg/kg; combination of 10 mg/kg Metuzumab with 2 mg/kg Cisplatin and 100 mg/kg Gemcitabine; wherein the antibodies were injected twice weekly for 3 week consecutively, while the chemotherapeutic agents were injected once a week for 3 weeks consecutively. The tumors were measured twice a week.
Animals were housed in specific pathogen-free (SPF) condition. For the localized subcutaneous xenograft mouse model, 1×10^6 NCI-H520 or A549 cells, suspended in Hank's balanced salt solution were implanted in the right dorsal flank of male SCID mice (6-8 week old). When tumors reached a mean volume of 100 mm^3, mice were randomized into treatment cohorts (n=10 mice per group). Mice were grouped for different treatments, including Metuzumab treatment groups treated with 2 mg/kg, 10 mg/kg and 30 mg/kg Metuzumab; chemistry treatment group treated with 2 mg/kg Cisplatin and 100 mg/kg Gemcitabine; combination treatment group treated with 10 mg/kg Metuzumab with 2 mg/kg Cisplatin and 100 mg/kg Gemcitabine, or saline (control group) via tail vein, respectively. Antibody injections were administered twice weekly, for 3 weeks consecutively; chemotherapeutic agents were administered once a week, for 3 weeks consecutively. Tumor size was measured twice each week for the duration of the study using calipers. Tumor volumes were determined using the following formula: […]. Antitumor activity was assessed by calculating inhibition ratio of tumor volumes (IRTV) based on medians by using following formula: [1−average (Ttreatment (day x)−Ttreatment (day 0))/average (Tcontrol (day x)−Tcontrol (day 0))]×100%.

With “Metuzumab: human-mouse chimeric anti-CD147 IgG1, heavy chain SEQ ID NO: 4, light chain SEQ ID NO: 3, Mannose-5 glycoform lacking fucose and xylose” the “inhibition ratio of tumor volumes (IRTV)” value (2 mg/kg twice weekly for 3 weeks) was 49.53%, the “inhibition ratio of tumor volumes (IRTV)” value (10 mg/kg twice weekly for 3 weeks) was 53.34% and the “inhibition ratio of tumor volumes (IRTV)” value (30 mg/kg twice weekly for 3 weeks) was 57.75%.
